# Results as given in PubChem BioAssay (NCI).
#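 Growth conditions: 96-well plates. Treatment: test compound, 48 hours, 5 concentrations. Analysis: linear interpolation between bracketing concentrations; unreached endpoints set to highest concentration. GI50 marks 50% less growth. At the TGI there is no net growth.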
# Columns and labels:
# Test in all cases: NCI-60 cell line screen, 48 h
# [1] = test system: 786-0 renal
# [2] = test system: A498 renal
# [3] = test system: BT-549 breast
# [4] = test system: CCRF-CEM leukemia
# [5] = test system: MALME-3M melanoma
# [6] = test system: MOLT-4 leukemia
# [7] = test system: RPMI-8226 leukemia
# [8] = test system: RXF 393 renal
# [9] = test system: SF-268 CNS
# [10] = test system: SN12C renal
Compound,GI50 [1] [µM],TGI [1] [µM],GI50 [2] [µM],TGI [2] [µM],GI50 [3] [µM],TGI [3] [µM],GI50 [4] [µM],TGI [4] [µM],GI50 [5] [µM],TGI [5] [µM],GI50 [6] [µM],TGI [6] [µM],GI50 [7] [µM],TGI [7] [µM],GI50 [8] [µM],TGI [8] [µM],GI50 [9] [µM],TGI [9] [µM],GI50 [10] [µM],TGI [10] [µM]
COc1cc(-c2cc(-c3ccc(N(C)C)cc3)nc(N3CCOCC3)c2C#N)cc(OC)c1OC,0.835,13.4,0.768,23.7,0.471,> 100,1.21,> 100,1.55,> 49.1,1.38,> 100,0.0677,5.08,0.134,3.85,3.73,> 100,0.46,> 100
O=C(NCc1cccnc1)/C(=C\c1ccc(Br)cc1)S(=O)(=O)c1ccccc1,1.15,2.44,1.36,2.71,0.913,2.21,0.315,4.5,1.13,2.58,0.419,2.95,0.408,2.43,0.413,1.42,1,2.82,0.727,2.19
COc1ccc(C(=O)c2cc(OC)c(OC)c(OC)c2)cc1OC(C)=O,0.672,> 100,1.61,6.43,< 0.0199,> 67.5,0.0353,> 100,35.4,> 100,< 0.0199,> 43.3,0.0324,26.8,0.0391,> 100,0.0883,> 100,0.0509,> 100
O=C(/C=C/c1ccc(C(F)(F)F)cc1)c1ccc(Nc2nc(NCCO)nc(NCCO)n2)cc1,3.12,10.9,8.85,21.2,2.53,8,3.24,10.7,4.95,18.8,2.68,10.7,2.12,5.23,1.6,3.44,2.8,11.5,2.71,9.7
COc1ccc(N2CCN(C(=O)c3ccccc3Nc3ccnc(C(F)(F)F)c3)CC2)cc1,> 100,> 100,12.2,> 100,68.5,> 100,53.9,> 100,> 100,> 100,29.3,> 100,9.48,> 100,99.9,> 100,> 100,> 100,64.4,> 100
COc1ccc(/C=C/c2c(C(=O)/C=C/c3ccc(Cl)cc3)c(C)nc3ccccc23)cc1,1.82,3.4,1.89,3.39,1.83,3.8,2.03,> 100,1.69,3.21,2,> 100,1.91,6.77,1.78,3.34,1.98,4.56,2.41,6.97
Nc1ncnc2c1c(C(F)(F)F)cn2[C@@H]1O[C@H](CO)[C@@H](O)[C@H]1O,2.15,> 100,0.0936,1.95,0.192,3.44,0.102,> 100,0.104,2.51,0.324,1.48,0.151,1.82,0.237,1.67,1.19,> 26.3,0.157,> 100
O=C(c1ccccc1Nc1ccnc(C(F)(F)F)c1)N1CCN(c2cccc(Cl)c2)CC1,23.2,> 84,12.7,46.3,15.9,37.3,11.2,> 84.5,23.1,69.3,11.9,44.5,6.3,48,16.3,64.8,29.3,> 100,16.4,45
